Test results reported in ChEMBL document CHEMBL5465560, “Selectivity Literature for EUbOPEN Chemogenomic Library” (2024).

Columns and labels:
[1] = target: Mitogen-activated protein kinase 11 (Homo sapiens) (UniProt Q15759); test: Selectivity interaction (Kinase panel (Invitrogen)) EUB0000639a MAPK11; conditions: at 200 nM
[2] = system: Receptor-type tyrosine-protein kinase FLT3 (Homo sapiens), P36888 [UNDEFINED MUTATION]; test: Selectivity interaction (KinomeScan (DiscoverX)) EUB0001079a FLT3; conditions: at 1 µM
Receptor-type tyrosine-protein kinase FLT3 (Homo sapiens), P36888 [UNDEFINED MUTATION], sequence (P36888 whole entry, looked up, change not shown): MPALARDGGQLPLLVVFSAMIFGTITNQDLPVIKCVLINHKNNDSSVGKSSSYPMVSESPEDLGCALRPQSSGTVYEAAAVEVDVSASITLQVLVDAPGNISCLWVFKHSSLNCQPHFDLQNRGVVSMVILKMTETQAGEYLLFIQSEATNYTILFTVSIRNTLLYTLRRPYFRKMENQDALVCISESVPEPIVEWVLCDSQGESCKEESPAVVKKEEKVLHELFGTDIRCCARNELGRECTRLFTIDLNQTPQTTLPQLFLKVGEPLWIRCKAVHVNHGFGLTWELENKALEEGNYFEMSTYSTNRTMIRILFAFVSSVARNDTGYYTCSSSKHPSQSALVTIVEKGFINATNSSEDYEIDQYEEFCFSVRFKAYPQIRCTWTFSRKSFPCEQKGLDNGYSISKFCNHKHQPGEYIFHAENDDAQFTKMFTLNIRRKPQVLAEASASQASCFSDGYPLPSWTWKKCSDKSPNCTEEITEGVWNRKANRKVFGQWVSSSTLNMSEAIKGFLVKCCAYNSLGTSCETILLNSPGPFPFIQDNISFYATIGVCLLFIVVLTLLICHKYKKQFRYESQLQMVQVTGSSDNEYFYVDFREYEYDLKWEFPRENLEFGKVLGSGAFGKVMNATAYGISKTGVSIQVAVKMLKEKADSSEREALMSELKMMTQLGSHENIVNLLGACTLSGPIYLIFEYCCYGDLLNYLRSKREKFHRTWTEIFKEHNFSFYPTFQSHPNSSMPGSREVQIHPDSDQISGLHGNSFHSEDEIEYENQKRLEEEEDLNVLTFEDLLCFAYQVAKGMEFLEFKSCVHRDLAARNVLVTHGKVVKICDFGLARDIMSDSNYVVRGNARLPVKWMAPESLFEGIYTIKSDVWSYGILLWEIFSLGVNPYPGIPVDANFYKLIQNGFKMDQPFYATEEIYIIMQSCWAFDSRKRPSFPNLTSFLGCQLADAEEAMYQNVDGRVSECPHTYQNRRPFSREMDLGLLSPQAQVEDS

[3] = target: Activated CDC42 kinase 1 (Homo sapiens, UniProt Q07912); test: Selectivity interaction (ProQinase) EUB0000171b TNK2
Activated CDC42 kinase 1, sequence (Q07912 whole entry, looked up): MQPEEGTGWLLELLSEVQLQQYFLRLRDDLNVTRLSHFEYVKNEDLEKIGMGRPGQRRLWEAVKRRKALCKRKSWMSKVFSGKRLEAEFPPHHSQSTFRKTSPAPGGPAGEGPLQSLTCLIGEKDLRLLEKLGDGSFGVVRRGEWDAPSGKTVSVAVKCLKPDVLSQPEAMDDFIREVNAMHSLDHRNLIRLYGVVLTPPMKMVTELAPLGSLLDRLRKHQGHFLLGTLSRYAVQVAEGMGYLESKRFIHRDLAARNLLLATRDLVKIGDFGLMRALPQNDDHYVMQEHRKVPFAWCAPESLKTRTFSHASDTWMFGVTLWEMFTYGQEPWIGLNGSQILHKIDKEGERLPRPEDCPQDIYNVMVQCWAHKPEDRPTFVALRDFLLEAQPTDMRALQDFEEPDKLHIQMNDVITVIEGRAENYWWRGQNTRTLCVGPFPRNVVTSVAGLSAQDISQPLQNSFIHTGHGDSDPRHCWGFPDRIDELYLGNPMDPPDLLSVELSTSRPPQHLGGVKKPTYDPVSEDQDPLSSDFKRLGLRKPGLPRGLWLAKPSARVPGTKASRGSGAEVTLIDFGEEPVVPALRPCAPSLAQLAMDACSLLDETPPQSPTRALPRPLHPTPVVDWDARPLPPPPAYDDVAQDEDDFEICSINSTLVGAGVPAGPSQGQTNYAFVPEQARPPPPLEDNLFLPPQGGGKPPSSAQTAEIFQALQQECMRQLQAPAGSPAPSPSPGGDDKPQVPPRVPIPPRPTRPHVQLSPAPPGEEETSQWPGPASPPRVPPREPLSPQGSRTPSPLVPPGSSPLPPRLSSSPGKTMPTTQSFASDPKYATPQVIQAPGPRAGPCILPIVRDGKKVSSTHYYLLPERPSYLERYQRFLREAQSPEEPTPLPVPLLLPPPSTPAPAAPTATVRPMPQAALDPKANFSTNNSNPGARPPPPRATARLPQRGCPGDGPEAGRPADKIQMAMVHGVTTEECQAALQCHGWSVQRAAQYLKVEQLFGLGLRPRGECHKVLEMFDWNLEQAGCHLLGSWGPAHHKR

[4] = target: T1, Mitogen-activated protein kinase kinase kinase 5 (Homo sapiens) (UniProt Q99683); test: Selectivity interaction (ProQinase) EUB0000171b MAP3K5
T1 sequence (whole entry): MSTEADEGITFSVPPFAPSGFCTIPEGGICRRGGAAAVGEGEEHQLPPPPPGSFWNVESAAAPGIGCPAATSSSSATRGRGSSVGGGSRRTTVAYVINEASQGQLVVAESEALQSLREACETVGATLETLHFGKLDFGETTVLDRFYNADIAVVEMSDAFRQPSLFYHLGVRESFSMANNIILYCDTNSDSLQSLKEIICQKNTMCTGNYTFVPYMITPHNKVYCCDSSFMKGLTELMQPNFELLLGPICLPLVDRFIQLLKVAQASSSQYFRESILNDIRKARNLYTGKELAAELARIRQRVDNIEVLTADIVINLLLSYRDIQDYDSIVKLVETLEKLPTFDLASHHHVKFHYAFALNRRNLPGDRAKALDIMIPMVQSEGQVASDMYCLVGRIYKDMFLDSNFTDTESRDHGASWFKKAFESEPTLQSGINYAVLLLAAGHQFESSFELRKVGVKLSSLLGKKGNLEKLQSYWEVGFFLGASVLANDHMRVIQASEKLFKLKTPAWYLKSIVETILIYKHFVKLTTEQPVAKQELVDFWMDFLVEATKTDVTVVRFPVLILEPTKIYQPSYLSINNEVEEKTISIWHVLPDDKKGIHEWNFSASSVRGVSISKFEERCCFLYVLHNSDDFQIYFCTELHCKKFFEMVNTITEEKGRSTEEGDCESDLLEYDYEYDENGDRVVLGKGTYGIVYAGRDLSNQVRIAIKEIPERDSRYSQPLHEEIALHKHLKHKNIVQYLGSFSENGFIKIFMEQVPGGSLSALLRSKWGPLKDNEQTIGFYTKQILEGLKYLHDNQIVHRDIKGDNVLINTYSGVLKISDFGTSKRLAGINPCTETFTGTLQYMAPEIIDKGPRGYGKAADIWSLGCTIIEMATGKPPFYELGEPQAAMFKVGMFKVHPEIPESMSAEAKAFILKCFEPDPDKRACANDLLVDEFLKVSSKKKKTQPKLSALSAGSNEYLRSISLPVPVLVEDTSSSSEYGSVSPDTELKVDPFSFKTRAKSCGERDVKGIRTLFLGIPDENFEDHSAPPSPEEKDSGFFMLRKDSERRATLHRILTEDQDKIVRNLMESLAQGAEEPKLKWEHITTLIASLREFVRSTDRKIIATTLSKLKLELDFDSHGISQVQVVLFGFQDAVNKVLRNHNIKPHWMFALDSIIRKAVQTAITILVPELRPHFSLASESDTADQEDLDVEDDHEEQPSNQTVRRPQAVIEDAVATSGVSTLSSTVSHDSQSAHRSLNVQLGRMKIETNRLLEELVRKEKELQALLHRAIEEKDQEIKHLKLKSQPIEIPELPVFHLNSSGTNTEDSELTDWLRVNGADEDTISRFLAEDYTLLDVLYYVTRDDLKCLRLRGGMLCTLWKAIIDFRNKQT

[5] = target: Activin receptor type-1-like (Homo sapiens) (UniProt P37023); test: Selectivity interaction (KinomeScan (DiscoverX)) EUB0000092b ACVRL1; conditions: at 10 µM
Activin receptor type-1-like (Homo sapiens), sequence (P37023 whole entry): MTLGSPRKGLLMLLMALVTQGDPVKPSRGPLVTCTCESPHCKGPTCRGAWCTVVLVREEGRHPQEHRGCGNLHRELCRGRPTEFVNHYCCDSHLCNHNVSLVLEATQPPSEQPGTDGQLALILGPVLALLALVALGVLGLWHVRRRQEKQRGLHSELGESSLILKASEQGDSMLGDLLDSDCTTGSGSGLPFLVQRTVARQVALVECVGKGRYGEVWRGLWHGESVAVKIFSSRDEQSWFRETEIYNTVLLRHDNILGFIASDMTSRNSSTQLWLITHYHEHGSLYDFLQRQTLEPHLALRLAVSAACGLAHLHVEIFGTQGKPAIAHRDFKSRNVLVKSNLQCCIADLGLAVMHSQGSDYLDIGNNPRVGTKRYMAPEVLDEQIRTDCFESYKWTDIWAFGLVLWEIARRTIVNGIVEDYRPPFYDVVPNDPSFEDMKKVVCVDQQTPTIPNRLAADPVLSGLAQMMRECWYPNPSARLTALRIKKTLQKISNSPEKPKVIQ

[6] = target: High affinity nerve growth factor receptor (Homo sapiens, UniProt P04629); test: Selectivity interaction (KinomeScan (DiscoverX)) EUB0000655a NTRK1; conditions: at 10 µM
High affinity nerve growth factor receptor, sequence (P04629 33-796 limits assumed): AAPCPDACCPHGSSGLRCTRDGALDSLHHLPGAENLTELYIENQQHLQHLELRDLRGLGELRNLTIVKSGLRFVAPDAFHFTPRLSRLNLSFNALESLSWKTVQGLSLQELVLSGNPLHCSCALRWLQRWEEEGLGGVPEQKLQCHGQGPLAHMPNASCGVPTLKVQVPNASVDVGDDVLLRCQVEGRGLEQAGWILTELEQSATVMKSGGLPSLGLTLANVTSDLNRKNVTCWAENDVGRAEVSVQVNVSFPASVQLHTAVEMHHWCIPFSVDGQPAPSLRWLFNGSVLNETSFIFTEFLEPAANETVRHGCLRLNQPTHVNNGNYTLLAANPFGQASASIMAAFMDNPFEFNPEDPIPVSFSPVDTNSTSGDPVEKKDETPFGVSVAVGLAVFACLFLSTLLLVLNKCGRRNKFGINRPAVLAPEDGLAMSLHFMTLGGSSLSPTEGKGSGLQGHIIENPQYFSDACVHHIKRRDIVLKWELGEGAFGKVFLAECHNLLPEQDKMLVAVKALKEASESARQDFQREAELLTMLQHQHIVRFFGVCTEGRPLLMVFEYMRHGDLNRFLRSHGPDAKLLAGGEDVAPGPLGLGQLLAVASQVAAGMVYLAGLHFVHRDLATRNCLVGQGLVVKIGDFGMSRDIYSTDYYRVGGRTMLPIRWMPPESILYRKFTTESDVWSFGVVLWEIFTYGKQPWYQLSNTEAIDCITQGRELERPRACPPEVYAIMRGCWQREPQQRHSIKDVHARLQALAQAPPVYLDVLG

[7] = target: Protein kinase C alpha type (Homo sapiens, UniProt P17252); test: Selectivity interaction (ActivX KiNativ screen (ex vivo kinase selectivity in human PBMCs)) EUB0001619a PRKCA; assay type: cell-based; conditions: PBMC, at 1 µM
[8] = target: Tyrosine-protein kinase Lck (Homo sapiens, UniProt P06239); test: Selectivity interaction (KinomeScan (DiscoverX)) EUB0000607a LCK; conditions: at 10 µM
Tyrosine-protein kinase Lck, sequence (P06239 2-509 limits assumed): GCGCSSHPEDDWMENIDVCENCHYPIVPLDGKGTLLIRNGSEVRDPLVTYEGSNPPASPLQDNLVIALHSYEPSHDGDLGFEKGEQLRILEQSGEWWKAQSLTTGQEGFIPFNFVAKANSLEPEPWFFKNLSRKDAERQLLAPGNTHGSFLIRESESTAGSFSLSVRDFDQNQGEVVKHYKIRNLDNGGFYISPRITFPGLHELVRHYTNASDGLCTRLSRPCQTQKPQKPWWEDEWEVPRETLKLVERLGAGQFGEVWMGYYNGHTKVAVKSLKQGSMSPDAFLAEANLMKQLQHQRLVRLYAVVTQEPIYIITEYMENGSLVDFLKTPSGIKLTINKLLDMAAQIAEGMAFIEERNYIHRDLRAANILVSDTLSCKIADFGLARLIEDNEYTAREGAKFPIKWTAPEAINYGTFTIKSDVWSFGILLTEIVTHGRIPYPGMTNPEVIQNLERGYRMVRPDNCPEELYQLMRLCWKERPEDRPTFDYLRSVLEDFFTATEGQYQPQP

[9] = target: Mitogen-activated protein kinase 11 (Homo sapiens) (UniProt Q15759); test: Selectivity interaction (SelectScreen profiling (Invitrogen)) EUB0000607a MAPK11; conditions: at 2 µM
[10] = target: T2, Ephrin type-B receptor 2 (Homo sapiens) (UniProt P29323); test: Selectivity interaction (KinomeScan (DiscoverX)) EUB0000666a EPHB2; conditions: at 10 µM
T2 sequence (whole entry): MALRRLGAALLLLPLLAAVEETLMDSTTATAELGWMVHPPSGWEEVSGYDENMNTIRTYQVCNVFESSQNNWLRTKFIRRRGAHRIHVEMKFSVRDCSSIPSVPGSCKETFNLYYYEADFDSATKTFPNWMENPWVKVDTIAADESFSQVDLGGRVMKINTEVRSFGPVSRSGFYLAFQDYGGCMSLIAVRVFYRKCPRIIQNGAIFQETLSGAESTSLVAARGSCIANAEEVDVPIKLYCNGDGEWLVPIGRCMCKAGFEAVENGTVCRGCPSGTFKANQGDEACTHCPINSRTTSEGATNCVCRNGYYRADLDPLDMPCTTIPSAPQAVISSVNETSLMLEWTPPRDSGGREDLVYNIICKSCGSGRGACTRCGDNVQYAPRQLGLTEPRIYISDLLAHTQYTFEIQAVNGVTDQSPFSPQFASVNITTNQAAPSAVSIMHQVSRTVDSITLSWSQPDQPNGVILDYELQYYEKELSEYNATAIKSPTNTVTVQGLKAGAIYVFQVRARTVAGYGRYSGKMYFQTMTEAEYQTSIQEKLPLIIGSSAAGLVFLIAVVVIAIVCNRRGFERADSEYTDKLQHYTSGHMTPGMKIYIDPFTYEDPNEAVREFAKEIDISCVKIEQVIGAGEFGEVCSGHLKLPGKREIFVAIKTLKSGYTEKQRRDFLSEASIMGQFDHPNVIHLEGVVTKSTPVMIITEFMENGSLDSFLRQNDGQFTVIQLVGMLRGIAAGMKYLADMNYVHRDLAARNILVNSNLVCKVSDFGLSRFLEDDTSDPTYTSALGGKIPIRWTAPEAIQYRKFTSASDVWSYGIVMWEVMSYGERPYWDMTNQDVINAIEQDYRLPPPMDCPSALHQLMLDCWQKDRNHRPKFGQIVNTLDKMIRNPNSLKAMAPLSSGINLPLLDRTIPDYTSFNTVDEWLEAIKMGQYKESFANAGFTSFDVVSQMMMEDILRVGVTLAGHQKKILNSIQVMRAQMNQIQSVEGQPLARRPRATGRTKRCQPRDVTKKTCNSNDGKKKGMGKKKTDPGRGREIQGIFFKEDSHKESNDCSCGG

Mitogen-activated protein kinase 11 (Homo sapiens), sequence (Q15759 whole entry): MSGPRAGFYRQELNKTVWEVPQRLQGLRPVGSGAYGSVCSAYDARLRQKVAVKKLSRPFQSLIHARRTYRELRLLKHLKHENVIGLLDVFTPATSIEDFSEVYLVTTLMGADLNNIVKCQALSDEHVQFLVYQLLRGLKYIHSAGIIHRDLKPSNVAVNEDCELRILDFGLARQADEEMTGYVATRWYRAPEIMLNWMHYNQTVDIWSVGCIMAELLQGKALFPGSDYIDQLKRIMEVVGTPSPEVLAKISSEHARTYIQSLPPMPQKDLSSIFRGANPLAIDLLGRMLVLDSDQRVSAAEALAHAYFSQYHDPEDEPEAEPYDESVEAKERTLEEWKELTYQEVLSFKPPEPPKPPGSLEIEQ

`CC[C@@H]1[C@H](F)C(=O)N[C@@H]1COc1nccc2cc(C(N)=O)c(OC)cc12` [ZIMLOVISERTIB] gave a % of inhibition [1] of 5.62%.
Molecule `Nc1cnc(N2CCc3cc(S(=O)(=O)Nc4c(F)cc(Cl)cc4F)cc(N4CCCC4=O)c32)nc1` [TP-020n] has a % of control [2] of 100%.
`C=CC(=O)Nc1cccc(C(=O)Nc2ccc(Nc3cc(-c4[nH]c(SC)nc4C)ccn3)cc2)c1` showed a % of control ([3]; at 1 µM) of 100%, a % of control ([3]; at 5 µM) of 95% and a % of control ([4]; at 1 µM) of 92%. It also gave a % of control ([4]; at 5 µM) of 95%.
With `CCC(=O)N1CCN(c2ccc(-n3c(=O)ccc4cnc5ccc(-c6cnc7ccccc7c6)cc5c43)cc2C(F)(F)F)CC1` the % of control [5] was 83%.
`CN(C)CCOc1ccc(-c2nc(-c3ccncc3)c(-c3ccc4c(c3)CC/C4=N\O)[nH]2)cc1` gave a % of control [6] of 90%.
Work on `N#Cc1cccc(-c2c[nH]c3ncnc(N4CCOCC4)c23)c1` yielded a % of inhibition [7] of 57%.
`CNC(=O)Nc1ccc(-c2nc(N3CC4CCC(C3)O4)c3cnn(C4CCC5(CC4)OCCO5)c3n2)cc1` gave a % of control [8] of 100% and a % of inhibition [9] of 2%.
`O=C(NOC[C@H](O)CO)c1ccc(F)c(F)c1Nc1ccc(I)cc1F` was tested, and the % of control [10] was 73%.
